# In the supplement of paper PMC3974653:
# Structures can show the parent of a compound that is named as a salt.
# Test system: MTT (mouse pheochromocytoma)
# Experiment: IC50 of cell viability (ATP content)
# Details: (24 or 48 h)
# How it was run: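 CellTiter-Glo ATP luminescence, read after 15 minutes, was used to assess MTT mouse pheochromocytoma cells treated for 24 or 48 hrs with library compounds (final 0.5 nM to 46 µM, 8 concentrations). The cells had been plated at 5 µl of 200,000 cells/ml per well in white 1536-well plates in DMEM with 5% FBS and 1% horse serum and cultured overnight at 37°C, 5% CO2. Normalisation set positive-control wells to 100% and DMSO wells to 0%. The IC50 was then determined by four-parameter logistic fitting.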
row,Compound,IC50 of cell viability [µM]
1,COC(c1ccccc1)(c1ccccc1)C(Oc1nc(C)cc(C)n1)C(=O)O (stereo not given) [AMBRISENTAN],> 46
2,Nc1c(Br)cc(Br)cc1CNC1CCC(O)CC1 (stereo not given) [AMBROXOL HYDROCHLORIDE],> 46
3,CC(=O)OCC(=O)[C@@]12OC3(CCCC3)OC1CC4C5CCC/6=C/C(=O)/C=C\[C@@]6(C)[C@]5(F)C(O)C[C@@]24C (stereo not given in full) [AMCINONIDE],> 46
4,O=C1NCN(c2ccccc2)C12CCN(CCCOc1ccc(F)cc1)CC2 [AMI-193],> 46
5,N=C(N)NC(=O)c1nc(Cl)c(N)nc1N [AMILORIDE],> 46
6,Cc1c(C)n(CCN(C)C)c2ccc(C(=O)OCCN(C)C)cc12 [AMINDOCATUM],> 46
7,NCC(O)CC(=O)O (stereo not given) [AMINOHYDROXYBUTYRIC ACID],> 46
8,Cl.NCC(=O)CCC(=O)O [AMINOLEVULINIC ACID HYDROCHLORIDE],> 46
9,Nc1nc(N)c2nc(CNc3ccc(C(=O)NC(CCC(=O)O)C(=O)O)cc3)cnc2n1 (stereo not given) [AMINOPTERIN],> 46
10,CCN(CC)CCCC(C)Nc1cc(/C=C/c2ccccc2Cl)nc2cc(Cl)ccc12 (stereo not given) [AMINOQUINOLUM],> 46
11,Cc1cc(N)c2cc(NC(=O)Nc3ccc4nc(C)cc(N)c4c3)ccc2n1 [AMINOQUINURIDUM],> 46
12,Nc1nccs1 [AMINOTHIAZOLE],> 46
13,C[N@+]1([O-])[C@@H]2C[C@H](OC(=O)[C@@H](CO)c3ccccc3)C[C@@H]1[C@H]1O[C@H]12 [AMINOXYSCOPOLAMINE HYDROBROMIDE],> 46
14,CCCCc1oc2ccccc2c1C(=O)c1cc(I)c(OCCN(CC)CC)c(I)c1 [AMIODARONE],> 46
15,Nc1nc(N)c(-c2ccccc2)s1 [AMIPHENAZOLUM],> 46
16,CN(C)CCCOC1C(C(O)CO)OC2OC(C)(C)O[C@@H]21.Cl (stereo not given in full) [AMIPRILOSE],> 46
17,Cc1ccc(/N=C/N(C)/C=N/c2ccc(C)cc2C)c(C)c1 [AMITRAZ],> 46
18,CC(C)c1ccc2oc3nc(N)c(C(=O)O)cc3c(=O)c2c1 [AMLEXANOX],> 46
19,CCOC(=O)C\1=C(COCCN)\N\C(=C(/C1C2=CC=CC=C2Cl)C(=O)OC)C.O[S+]([O-])(=O)C3=CC=CC=C3 (stereo not given) [AMLODIPINE BESYLATE],> 46
20,CCC(C)(C)OC(=O)N[C@@H](Cc1c[nH]c2ccccc12)C(=O)N[C@@H](CCSC)C(=O)N[C@@H](CC(=O)O)C(=O)N[C@@H](Cc1ccccc1)C(N)=O [AMOGASTRIN],> 46
21,CCC(C)(C)c1ccc(CC(C)CN2C[C@@H](C)O[C@@H](C)C2)cc1 (stereo not given in full) [AMOROLFINE HYDROCHLORIDE],> 46
22,ClC1=CC\2=C(OC3=C(C=CC=C3)\N=C2N4CCNCC4)C=C1 [AMOXAPINE],> 46

row,Compound,IC50 of cell viability [µM]
1,C[C@H](N)Cc1ccccc1 [AMPHETAMINE ADIPATE],> 46
2,CCCCC/C(C=O)=C/c1ccccc1 [AMYL CINNAMAL],> 46
3,CCCCCc1ccc(C)cc1O [AMYLMETACRESOL],> 46
4,Oc1cn2c(n1)Nc1ccc(Cl)c(Cl)c1C2 [ANAGRELIDE HYDROCHLORIDE],> 46
5,C=C1CCC2[C@](C)(CO)C(O)CC[C@]2(C)C1C/C=C1/C(=O)OCC1O (stereo not given in full) [ANDROGRAPHOLIDE],> 46
6,C[C@]12CC[C@H]3[C@@H](CCC/4=C/C(=O)CC[C@]34C)[C@@H]1CCC2=O [ANDROSTENEDIONE],> 46
7,CC(=O)OCC(=O)[C@@]1(O)CCC2C3CCC4=CC(=O)CC[C@]4(C)C3=CC[C@@]21C (stereo not given in full) [ANECORTAVE ACETATE],> 46
8,COc1ccc(-c2cc(=S)ss2)cc1 [ANETHOLE TRITHIONE],> 46
9,COc1ccc(C(=O)N2CCCC2=O)cc1 [ANIRACETAM],> 46
10,COc1ccc(C2C(=O)c3ccccc3C2=O)cc1 [ANISINDIONE],> 46
11,CCCC(CCC)C(=O)OC1C[C@H]2CC[C@@H](C1)[N+]2(C)C (stereo not given in full) [ANISOTROPINE METHYLBROMIDE],> 46
12,Clc1cccc(SC2CCNCC2)n1 [ANPIRTOLINE],> 46
13,[S]=[Sb+]([S-])[S][Sb+](=[S])[S-] [ANTIMONY PENTASULFIDE],> 46
14,CCN(CC)CCOC(=O)C(C)(c1ccccc1)c1ccccc1 [APROFENUM],> 46
15,OCC(O)C(O)C(O)CO (stereo not given) [ARABITOL(D)],> 46
16,NCC[C@H](O)C(=O)N[C@@H]1C[C@H](N)[C@@H](O[C@H]2O[C@H](CN)CC[C@H]2N)[C@H](O)[C@H]1O[C@H]1O[C@H](CO)[C@@H](O)[C@H](N)[C@H]1O [ARBEKACIN SULFATE],> 46
17,OCC1O[C@H](Oc2ccc(O)cc2)C(O)C(O)C1O (stereo not given in full) [ARBUTIN],> 46
18,N=C(N)NCCCCNC(=N)N.O=[S+]([O-])(O)O [ARCAINE SULFATE],> 46
19,COC(=O)\C1=C\CCN(C)C1 [ARECOLINE],> 46
20,COc1ccc(CC(C)NCC(O)c2ccc(O)c(NC=O)c2)cc1 (stereo not given) [ARFORMOTEROL TARTRATE],> 46
21,CC1CNc2c(cccc2S(=O)(=O)NC(CCCNC(=N)N)C(=O)N2CC[C@@H](C)C[C@@H]2C(=O)O)C1 (stereo not given in full) [ARGATROBAN],> 46
22,CC(C)(C)NC[C@H](O)CSc1nc(-c2ccc(C(N)=O)s2)cs1 [AROTINOLOL HYDROCHLORIDE],> 46

row,Compound,IC50 of cell viability [µM]
1,COC(=O)C(Cc1ccccc1)NC(=O)C(N)CC(=O)O (stereo not given) [ASPARTAME],> 46
2,CNC(=O)C[C@@H](N)C(=O)N[C@@H](C(=O)N[C@@H]1C(=O)N2[C@@H]1SC(C)(C)[C@@H]2C(=O)O)c1ccc(O)cc1 [ASPOXICILLIN],> 46
3,CO[C@H]1[C@@H](O)[C@H](N)[C@@H](O[C@H]2O[C@@H]([C@H](C)N)CC[C@H]2N)[C@H](O)[C@@H]1N(C)C(=O)CN [ASTROMICIN SULPHATE],> 46
4,CN1[C@@H]2CC[C@@H]1CC(OC(=O)[C@H](CO)c1ccccc1)C2 (stereo not given in full) [ATROPINE],> 46
5,OCC1OC([S][Au])[C@H](O)C(O)C1O (stereo not given in full) [AUROTHIOGLUCOSE],> 46
6,CCC(C)C1O[C@]2(C=CC1C)CC1CC(C/C=C(\C)[C@H](OC3CC(OC)C(O[C@H]4CC(OC)[C@@H](O)C(C)O4)C(C)O3)[C@@H](C)/C=C/C=C3\COC4C(O)C(C)=C[C@H](C(=O)O1)[C@@]34O)O2 (stereo not given in full) [AVERMECTIN B1],> 46
7,CC[C@H](C)[C@H](NC(=O)[C@H](CO)NC(=O)[C@H](CC(N)=O)NC(=O)[C@H](CC(C)C)NC(=O)[C@H](Cc1ccc(O)cc1)NC(=O)[C@H](CCCCN)NC(=O)[C@H](CCCCN)NC(=O)[C@@H](NC(=O)[C@H](C)NC(=O)[C@H](CCSC)NC(=O)[C@H](CCC(N)=O)NC(=O)[C@H](CCCCN)NC(=O)[C@H](CCCNC(=N)N)NC(=O)[C@H](CC(C)C)NC(=O)[C@H](CCCNC(=N)N)NC(=O)[C@@H](NC(=O)[C@H](Cc1ccc(O)cc1)NC(=O)[C@H](CC(N)=O)NC(=O)[C@H](CC(=O)O)NC(=O)[C@@H](NC(=O)[C@H](Cc1ccccc1)NC(=O)[C@@H](NC(=O)[C@H](C)NC(=O)[C@H](CC(=O)O)NC(=O)[C@H](CO)NC(=O)[C@@H](N)Cc1c[nH]cn1)C(C)C)[C@@H](C)O)[C@@H](C)O)C(C)C)C(=O)N[C@@H](CC(C)C)C(=O)N[C@@H](CC(N)=O)C(=O)O [AVIPTADIL],> 46
8,COc1ccc(C(=O)CC(=O)c2ccc(C(C)(C)C)cc2)cc1 [AVOBENZONE],> 46
9,[N-]=[N+]=CC(=O)OCC(N)C(=O)O (stereo not given) [AZASERINE],> 46
10,Cl.CN1CCCC(CC1)N2\N=C(CC3=CC=C(Cl)C=C3)/C4=CC=CC=C4C2=O (stereo not given) [AZELASTINE HYDROCHLORIDE],> 46
11,N[S+](=O)([O-])c1cc(-c2nnn[nH]2)c(NCc2cccs2)cc1Cl [AZOSEMIDE],> 46
12,CC(=O)O[C@H]1CC[C@]\2(C)C3CC[C@@]\4(C)C(C\C=C4C5=CC=CN=C5)C3C\C=C2C1 (stereo not given in full) [Abiraterone Acetate],> 46
13,C[C@H]1OC(OC2C(O)[C@@H](O)C(OC3C(O)[C@@H](O)C(O)O[C@@H]3CO)O[C@@H]2CO)[C@H](O)C(O)C1N[C@H]1C=C(CO)[C@@H](O)[C@H](O)C1O (stereo not given in full) [Acarbose],> 46
14,CCCC(=O)Nc1ccc(OC[C@@H](O)CNC(C)C)c(C(C)=O)c1 [Acebutolol hydrochloride],> 46
15,O=C(O)COC(=O)Cc1ccccc1Nc1c(Cl)cccc1Cl [Aceclofenac],> 46
16,COc1ccc2c(c1)c(CC(=O)OCC(=O)O)c(C)n2C(=O)c1ccc(Cl)cc1 [Acemetacin],> 46
17,CC(=O)C[C@H](C1=CC=C(C=C1)[N+]([O-])=O)\C2=C(/O)C3=C(OC2=O)C=CC=C3 [Acenocoumarol],> 46
18,CC/1=C/C(=O)[N-][S](=O)(=O)O1 [Acesulfame K],> 46
19,CCOC(C)OCC [Acetal (Acetaldehyde diethyl acetal)],> 46
20,"CN(C)C(=O)CNC(=O)Cc1ccccc1 [Acetamide, N,N-dimethyl-2-(2-phenylacetamido)-]",> 46
21,CC(=O)Nc1ccc(O)cc1 [Acetaminophen (4-hydroxyacetanilide)],> 46
